pIC50: −log10 of the molar value. Read-outs that look alike come from different tables or passages of the source.
Key:
KRAS^G12D/cRAF = KRAS^G12D/cRAF (Homo sapiens, UniProt P01116, G12D); assay: KRAS G12D/cRAF binding test (Alphalisa); conditions: His-tagged KRAS G12D + GMPPNP, GST-tagged cRAF
Experimental: The compound was dissolved in 100% DMSO at a starting concentration of 5 mM and diluted in DMSO with a 3-fold serial dilution method for a total of 8 concentration points. 1 μL of the compound or DMSO at each concentration point was added into 99 μL of the experimental buffer to obtain 10× stock solution.
• 1) 4 μL of the working mixture solution of His-tagged KRAS^G12D and GMPPNP was added to the 384-well plate. • 2) The 10× compound stock solution or 1% DMSO was added to the 384-well plate. • 3) The plate was centrifuged at 1000 rpm for 1 minute. • 4) 4 μL of GST-tagged cRAF solution was added to the 384-well plate. • 5) The plate was centrifuged at 1000 rpm for 1 minute. • 6) The plate was incubated at room temperature for 15 minutes. • 7) 10 μL of detection working solution was added to the 384-well plate. • 8) The plate was centrifuged at 1000 rpm for 1 minute. • 9) The plate was incubated at room temperature for 60 minutes. • 10) The 384-well plate was placed into Envision and assay data was obtained.
(§1) The ratio for each compound concentration was calculated from the signal of the DMSO control group contained in each assay plate and the Alphalisa signal in each compound well. The compound concentration required for inhibitory concentration at 50% (IC50) was determined using a four-parameter logarithmic dose-response equation by testing the concentration of the compound and the value of the ratio. The endpoint value (IC50) of the reference compound was assessed in each experiment as a quality control measure. If the endpoint value is within three times the expected value, the experiment may be considered acceptable.

AGS cell = assay: Anti-proliferative 2D CTG assay, AGS cells; assay type: cell-based; conditions: AGS cells, incubated 3 days, CTG, read-out: AGS cell IC50
Experimental: When the cell confluence was about 80%, the cells were isolated with 0.25% trypsin. Isolated cells were resuspended in 5 mL fresh cell culture medium and centrifuged for cell collection. Meanwhile, the number of cells was also calculated. The cells were then suspended in culture medium of medium concentration. The cells were placed into a 96-well plate with 1000 cells/well for AGS and 1000 cells/well for GP2D. The 96-well plate was placed in an incubator at 37° C. and incubated overnight.
1.2 Day 1 Compound Treatment From the 10 mM stock solution, with a ratio of 1:5, 10-point serial dilutions were performed. The 10× medium containing the compound was transferred into corresponding wells of the 96 wells. The final maximum compound concentration was […] and the final DMSO concentration was 0.1%. The 96-well plate was placed in a 37° C. incubator, the AGS cells were incubated for 3 days, and the GP2D cells were incubated for 4 days.
50 μL/well of detection reagent (CTG) was added to the AGS cells, and the signal was read in an Envision machine.
as §1, with “The percent inhibition (%) at” for “The ratio for”, “signal in” for “signal of”, “the HPE and ZPE” for “the DMSO”, “control wells and the fluorescence signal in the individual compound wells included” for “control group contained”, “assay plate. […]” for “assay plate and the Alphalisa signal in each compound well.”, “the inhibition percentage value.” for “the value of the ratio.”

[1] = Homo sapiens, 72 h, class symbols
[2] = Homo sapiens, 72 h, numeric values

Sequence of KRAS^G12D/cRAF (P01116 1-188 isoform P01116-2 G12D): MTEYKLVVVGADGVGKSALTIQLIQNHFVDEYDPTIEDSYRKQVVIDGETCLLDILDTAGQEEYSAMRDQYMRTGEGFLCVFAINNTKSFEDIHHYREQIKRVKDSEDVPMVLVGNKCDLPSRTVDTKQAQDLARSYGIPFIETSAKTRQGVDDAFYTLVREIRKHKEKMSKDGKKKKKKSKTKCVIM

SMILES	pIC50 (KRAS^G12D/cRAF; class symbols)	pIC50 (AGS cell; [1])	pIC50 (KRAS^G12D/cRAF; numeric values)	pIC50 (AGS cell; numeric values)	pIC50 (AGS cell; [2])
[2H]C([2H])([2H])OCC12CCC(CN(c3nc(OC[C@@]45CCCN4C[C@H](F)C5)nc4c(F)c(-c5cc(O)cc6ccc(F)c(C#C)c56)nc(C)c34)C1)N2 (stereo partly drawn) [Example 39, 5-ethynyl-6-fluoro-4-(8-fluoro-2-(((2R,7aS)-2-fluorotetrahydro-1H-pyrrolizin-7a(5H)-yl)methoxy)-4-(1-((methoxy-d3)methyl)-3,8-diazabicyclo[3.2.1]octan-3-yl)-5-methylpyrido[4,3-d]pyrimidin-7-yl)naphthalen-2-ol]	6.30 to 7.30	> 7.30	–	–	–
[2H]C([2H])([2H])C12CCC(CN(c3nc(OC[C@@]45CCCN4C[C@H](F)C5)nc4c(F)c(-c5cc(O)cc6ccc(F)c(C#C)c56)nc(C)c34)C1)N2 (stereo partly drawn) [Example 40, 5-ethynyl-6-fluoro-4-(8-fluoro-2-(((2R,7aS)-2-fluorotetrahydro-1H-pyrrolizin-7a(5H)-yl)methoxy)-5-methyl-4-(1-(methyl-d3)-3,8-diazabicyclo[3.2.1]octan-3-yl)pyrido[4,3-d]pyrimidin-7-yl)naphthalen-2-ol]	> 7.30	> 7.30	–	–	–
C#Cc1c(F)ccc2cc(O)cc(-c3ncc4c(N5C[C@H]6CC[C@@](C)(C5)N6)nc(OC[C@@]56CCCN5C[C@H](F)C6)nc4c3F)c12 [Example 44]	–	–	7.72	8.21	–
C#Cc1c(F)ccc2cc(O)cc(-c3ncc4c(N5C[C@@H]6CC[C@](COC)(C5)N6)nc(OC[C@@]56CCCN5C[C@H](F)C6)nc4c3F)c12 [Example 46, 5-ethynyl-6-fluoro-4-(8-fluoro-2-(((2R,7aS)-2-fluorotetrahydro-1H-pyrrolizin-7a(5H)-yl)methoxy)-4-((1R,5S)-1-(methoxymethyl)-3,8-diazabicyclo[3.2.1]octan-3-yl)pyrido[4,3-d]pyrimidin-7-yl)naphthalen-2-ol]	6.30 to 7.30	> 7.30	–	–	–
[2H]C([2H])([2H])OC[C@]12CC[C@]([2H])(CN(c3nc(OC[C@@]45CCCN4C[C@H](F)C5)nc4c(F)c(-c5cc(O)cc6ccc(F)c(C#C)c56)ncc34)C1)N2 [Example 47, 5-ethynyl-6-fluoro-4-(8-fluoro-2-(((2R,7aS)-2-fluorotetrahydro-1H-pyrrolizin-7a(5H)-yl)methoxy)-4-((1S,5R)-1-((methoxy-d3)methyl)-3,8-diazabicyclo[3.2.1]octan-3-yl-5-d)pyrido[4,3-d]pyrimidin-7-yl)naphthalen-2-ol]	6.30 to 7.30	6.30 to 7.30	–	–	–
[2H]C([2H])([2H])OC[C@@]12CC[C@@]([2H])(CN(c3nc(OC[C@@]45CCCN4C[C@H](F)C5)nc4c(F)c(-c5cc(O)cc6ccc(F)c(C#C)c56)ncc34)C1)N2 [Example 48, 5-ethynyl-6-fluoro-4-(8-fluoro-2-(((2R,7aS)-2-fluorotetrahydro-1H-pyrrolizin-7a(5H)-yl)methoxy)-4-((1R,5S)-1-((methoxy-d3)methyl)-3,8-diazabicyclo[3.2.1]octan-3-yl-5-d)pyrido[4,3-d]pyrimidin-7-yl)naphthalen-2-ol]	< 6.30	> 7.30	–	–	–
[2H]C([2H])([2H])OC[C@]12CC[C@H](CN(c3nc(OC[C@@]45CCCN4C[C@H](F)C5)nc4c(F)c(-c5cc(O)cc6ccc(F)c(C#C)c56)nc(OC)c34)C1)N2 [Example 49, 5-ethynyl-6-fluoro-4-(8-fluoro-2-(((2R,7aS)-2-fluorotetrahydro-1H-pyrrolizin-7a(5H)-yl)methoxy)-5-methoxy-4-((1S,5R)-1-((methoxy-d3)methyl)-3,8-diazabicyclo[3.2.1]octan-3-yl)pyrido[4,3-d]pyrimidin-7-yl)naphthalen-2-ol]	–	–	6.58	–	6.54
[2H]C([2H])([2H])OC[C@@]12CC[C@@H](CN(c3nc(OC[C@@]45CCCN4C[C@H](F)C5)nc4c(F)c(-c5cc(O)cc6ccc(F)c(C#C)c56)nc(OCC)c34)C1)N2 [Example 52, 4-(5-ethoxy-8-fluoro-2-(((2R,7aS)-2-fluorotetrahydro-1H-pyrrolizin-7a(5H)-yl)methoxy)-4-((1R,5S)-1-((methoxy-d3)methyl)-3,8-diazabicyclo[3.2.1]octan-3-yl)pyrido[4,3-d]pyrimidin-7-yl)-5-ethynyl-6-fluoronaphthalen-2-ol]	6.30 to 7.30	> 7.30	–	–	–
C#Cc1c(F)ccc2cc(O)cc(-c3ncc4c(N5C[C@H]6CC[C@@](CC)(C5)N6)nc(OC[C@@]56CCCN5C[C@H](F)C6)nc4c3F)c12 [Example 53, 4-(4-((1S,5R)-1-ethyl-3,8-diazabicyclo[3.2.1]octan-3-yl)-8-fluoro-2-(((2R,7aS)-2-fluorotetrahydro-1H-pyrrolizin-7a(5H)-yl)methoxy)pyrido[4,3-d]pyrimidin-7-yl)-5-eth ynyl-6-fluoronaphthalen-2-ol]	–	–	6.66	–	6.15
C#Cc1c(F)ccc2cc(O)cc(-c3ncc4c(N5C[C@@H]6CC[C@](C=C)(C5)N6)nc(OC[C@@]56CCCN5C[C@H](F)C6)nc4c3F)c12 [Example 58, 5-ethynyl-6-fluoro-4-(8-fluoro-2-(((2R,7aS)-2-fluorotetrahydro-1H-pyrrolizin-7a(5H)-yl)methoxy)-4-((1S,5S)-1-vinyl-3,8-diazabicyclo[3.2.1]octan-3-yl)pyrido[4,3-d]pyrimidin-7-yl)naphthalen-2-ol]	–	–	7.33	–	6.90
C#Cc1c(F)ccc2cc(O)cc(-c3ncc4c(N5C[C@H]6CC[C@@](/C=C\F)(C5)N6)nc(OC[C@@]56CCCN5C[C@H](F)C6)nc4c3F)c12 [Example 59, 5-ethynyl-6-fluoro-4-(8-fluoro-2-(((2R,7aS)-2-fluorotetrahydro-1H-pyrrolizin-7a(5H)-yl)methoxy)-4-((1R,5R)-1-((Z)-2-fluorovinyl)-3,8-diazabicyclo[3.2.1]octan-3-yl)pyrido[4,3-d]pyrimidin-7-yl)naphthalen-2-ol]	–	–	7.82	–	7.89
C#Cc1c(F)ccc2cc(O)cc(-c3ncc4c(N5C[C@@H]6CC[C@](/C=C\F)(C5)N6)nc(OC[C@@]56CCCN5C[C@H](F)C6)nc4c3F)c12 [Example 60, 5-ethynyl-6-fluoro-4-(8-fluoro-2-(((2R,7aS)-2-fluorotetrahydro-1H-pyrrolizin-7a(5H)-yl)methoxy)-4-((1S,5S)-1-((Z)-2-fluorovinyl)-3,8-diazabicyclo[3.2.1]octan-3-yl)pyrido[4,3-d]pyrimidin-7-yl)naphthalen-2-ol]	–	–	7.60	–	7.10
C#Cc1c(F)ccc2cc(O)cc(-c3ncc4c(N5C[C@H]6CC[C@@](/C=C/F)(C5)N6)nc(OC[C@@]56CCCN5C[C@H](F)C6)nc4c3F)c12 [Example 61, 5-ethynyl-6-fluoro-4-(8-fluoro-2-(((2R,7aS)-2-fluorotetrahydro-1H-pyrrolizin-7a(5H)-yl)methoxy)-4-((1R,5R)-1-((E)-2-fluorovinyl)-3,8-diazabicyclo[3.2.1]octan-3-yl)pyrido[4,3-d]pyrimidin-7-yl)naphthalen-2-ol]	–	–	6.06	–	6.09
C#Cc1c(F)ccc2cc(O)cc(-c3ncc4c(N5C[C@@H]6CC[C@](/C=C/F)(C5)N6)nc(OC[C@@]56CCCN5C[C@H](F)C6)nc4c3F)c12 [Example 62, 5-ethynyl-6-fluoro-4-(8-fluoro-2-(((2R,7aS)-2-fluorotetrahydro-1H-pyrrolizin-7a(5H)-yl)methoxy)-4-((1S,5S)-1-((E)-2-fluorovinyl)-3,8-diazabicyclo[3.2.1]octan-3-yl)pyrido[4,3-d]pyrimidin-7-yl)naphthalen-2-ol]	–	–	7.74	–	7.57

Source: US20260176262A1, “KRAS INHIBITORS, PREPARATION METHOD THEREFOR, AND PHARMACEUTICAL USE THEREOF” (ABBISKO THERAPEUTICS CO., LTD., priority 2021, published 2026)
